Data as given in patent publication US20200263184A1, “PHARMACEUTICAL COMPOSITION FOR PREVENTING AND TREATING CANCER, CONTAINING MALATE-ASPARTATE SHUTTLE INHIBITOR AND ANTICANCER DRUG AS ACTIVE INGREDIENTS” (NATIONAL CANCER CENTER, priority 2017, published 2020).

Legend:
Type in all cases: cell-based
[1] = tested on: Huh7, SNB19, UACC62, MDA-MB-231, KATO III cancer cell lines; assay: SRB cell proliferation, NPM and etomoxir, cancer cell lines; details: 25 μM NPM alone, 24 hours; cancer cell lines other than SNB19
[2] = tested on: A549 cells (lung cancer cell line); assay: Intracellular ATP level with PSA or PA, A549; details: 2, 4, 6, 8 or 10 mM, 48 hours; compared to an untreated control
Protocol: (§1) Specifically, A549 cells, IMR90 cells, H23 cells, H226 cells, H522 cells, and EKVX cells, which are lung cancer cell lines; and UACC62 cells, MALME-3M cells, A357 cells, M14 cells, and UACC257 cells, which are melanoma cell lines, were separately cultured. […] for 48 hours, and then intracellular ATP levels were examined using an ATP colorimetric/fluorometric analysis kit (BioVision, Milpitas, Calif., USA) in accordance with the manufacturer's protocol. The incubated cells were divided into groups of 1×10^6 cells, 100 μl of an ATP assay buffer was added thereto to lyse the cells, followed by centrifugation at 15,000×g and 4° C. for 2 minutes to separate only the supernatant. 2 μl to 50 μl of the separated supernatant was transferred to a 96-well plate, and then an ATP assay buffer was added thereto to a final volume of 50 μl per well. […] After mixing, the plate was maintained in a dark room at room temperature for 30 minutes, and then absorbance was measured at 570 nm using a microplate reader. To compare relative ATP levels among the measured values, an absorbance value for cancer cells to which gossypol and phenformin were not added was set as a reference, and relative absorbance values of the cases in which cancer cells were treated with each drug were compared, to compare ATP levels in the cells. […]

[3] = tested on: UACC62 cells (melanoma cell line); assay: Intracellular ATP level with PSA or PA, UACC62; details: 2, 4, 6, 8 or 10 mM, 48 hours; compared to an untreated control
Protocol: as §1

[4] = tested on: IMR90 cells (normal control, lung fibroblasts); assay: SRB cell proliferation with PSA, IMR90; details: normal cell line, PSA 2, 4, 6, 8 or 10 mM, 48 hours
[5] = tested on: A549 cells (lung cancer cell line); assay: SRB cell proliferation with PSA, A549; details: PSA 2, 4, 6, 8 or 10 mM, 48 hours
Protocol: (§2) Specifically, A549 cells, H522 cells, H226 cells, H23 cells, and EKVX cells, which are lung cancer cell lines; and UACC62 cells, UACC257 cells, A375 cells, SK-MEL-5 cells, and MALME-3M cells, which are melanoma cell lines, were separately cultured. The respective cells were cultured at a […] dose and inoculated in a 96-well plate at a concentration ranging from 5,000 cells/ml to 20,000 cells/ml according to the doubling time of each cell line. […] After completion of the culturing, to perform SRB analysis, a cooled 50% aqueous TCA solution was added to each well to a final concentration of 10% and the cells were incubated in a 4° C. refrigerated state for 60 minutes and then fixed. After incubation, the supernatant was removed, washed five times with tap water, and dried. A 1% acetic acid aqueous solution containing 0.4% sulforhodamine B was added to the dried sample in each well and maintained at room temperature for 10 minutes to stain the cells. After staining, the dye which was not used for staining was removed by washing with a 1% acetic acid solution, and then the plate was dried again. The dye which was used for staining was dissolved in a 10 mM Trisma base solution, and then absorbance was measured at 515 nm.
(§3) Specifically, A549 cells (lung cancer cell line), UACC62 cells (melanoma cell line), and IMR90 cells (normal control, lung fibroblasts) were separately cultured. […]

[6] = tested on: UACC62 cells (melanoma cell line); assay: SRB cell proliferation with PSA, UACC62; details: PSA 2, 4, 6, 8 or 10 mM, 48 hours
Protocol: as §2, §3

[7] = tested on: IMR90 cells (normal control); assay: Mitochondrial membrane potential (TMRE), IMR90; details: single drug alone (4 mM PSA or PA; 10 μM gossypol), 48 hours
Protocol: (§4) Specifically, A549 cells, UACC62 cells, and IMR90 cells, as a normal control, were cultured. The respective cultured cells were treated with a drug mixture of 4 mM of an SLC25A11 inhibitor (PSA or PA), which is an MAS inhibitor, and 10 μM gossypol or with only one of the drugs and cultured in the same manner as described above for 48 hours, and then each cell culture solution was dispensed into chamber slides (for fluorescence microscopy) or a 6-well plate (for flow cytometry). The dispensed culture solution was treated with 100 nM tetramethylrodamine ester (TMRE) as a fluorescent probe and a reaction was allowed to occur therebetween for 20 minutes. After the reaction, the cells were washed with cooled PBS, and the fluorescence development of the cells was measured using a Zeiss LSM510 fluorescence microscope (Carl Zeiss, Oberkochen, Baden-Wurttemberg, Germany). In addition, fluorescence intensity was analyzed in a flow cytometer using a 585 nm (FL-2) channel.

cancer cell lines = assay: Intracellular ATP level, MAS inhibitor and gossypol, cancer cell lines; details: 10 μM gossypol alone vs 4 mM PSA or PA alone, 48 hours
Protocol: as §1, with “[…],” for “an absorbance value for cancer cells to which gossypol and phenformin were not added was set as a reference,”

[8] = tested on: EKVX, A549, HOP-62 (lung cancer) and UACC62, UACC257, A375 (melanoma) cells; assay: SRB cell proliferation, MAS inhibitor and gossypol, cancer cell lines; details: 48 hours
A549 cells [9] = assay: Cell apoptosis (Annexin V-FITC/PI flow cytometry), A549; details: single drug alone (4 mM PSA or PA; 10 μM gossypol), 48 hours
Protocol: (§5) First, A549 cells, UACC62 cells, and IMR90 cells, as a normal control, were cultured. The cultured cells were treated with a drug mixture of a 4 mM […] inhibitor (PSA or PA), which is an MAS inhibitor, and 10 μM gossypol or with only one of the drugs and cultured in the same manner as described above for 48 hours. The medium was removed from the cultured cells, followed by washing the cells twice with cold PBS and centrifugation at 1,400 rpm for 3 minutes, and a binding buffer was added thereto so that concentration was 1×10^6 cells/[…]. Then, a […] buffer was transferred to a 5-mL culture tube and 5 μl of each of Annexin V-FITC and propidium iodine (PI) was added thereto. Mixing was performed by slowly vortexing the tube, and then the cells were incubated in a dark room at room temperature for 15 minutes. After incubation, a binding buffer (400 μl) was added thereto and the degree of increase in cell apoptosis was examined by a flow cytometer.

UACC62 cells = assay: Cell apoptosis (Annexin V-FITC/PI flow cytometry), UACC62; details: single drug alone (4 mM PSA or PA; 10 μM gossypol), 48 hours
Protocol: as §5

A549 cells [10] = assay: Mitochondrial membrane potential (TMRE), A549; details: 10 μM gossypol alone, 48 hours
Protocol: as §4

[11] = tested on: IMR90 cells (normal control); assay: Cell apoptosis (Annexin V-FITC/PI flow cytometry), IMR90; details: single drug alone (4 mM PSA or PA; 10 μM gossypol), 48 hours
Protocol: as §5

`O=C1C=CC(=O)N1c1ccc2ccc3cccc4ccc1c2c34` [NPM, N-(1-pyrenyl)maleimide] was tested, and the “effect of inhibiting cancer cell proliferation” value [1] was “could be exhibited”.

For `O=C(O)C(=O)c1ccccc1C(=O)O` [PA, phthalonic acid], the “intracellular ATP levels” value [2] was “reduced” and the “intracellular ATP levels” value [3] was “reduced”.

`O=C(O)CC(C(=O)O)c1ccccc1` (stereo not shown) [PSA, phenyl succinic acid] was tested, and the cell proliferation [4] was “not significantly inhibited”, the “intracellular ATP levels” value [2] was “reduced” and the “intracellular ATP levels” value [3] was “reduced”. For the same compound, the “level of cancer cell line proliferation” value [5] was “reduced in a manner dependent upon the concentration of added PSA” and the “level of cancer cell line proliferation” value [6] was “reduced in a manner dependent upon the concentration of added PSA”.

For `Cc1cc2c(C(C)C)c(O)c(O)c(C=O)c2c(O)c1-c1c(C)cc2c(C(C)C)c(O)c(O)c(C=O)c2c1O` [gossypol], the mitochondrial membrane potential [7] was “no significant change”, the “intracellular ATP production level, difference between gossypol alone and PSA or PA alone” value (cancer cell lines) was “no significant difference” and the “effect of inhibiting a cell proliferation level, gossypol alone versus NPM alone” value ([8]; 10 μM gossypol alone vs 25 μM NPM) was “more significantly exhibited”. The “reduction in the cell proliferation level, gossypol alone versus PSA or PA alone” value ([8]; 10 μM gossypol alone vs 4 mM PSA or PA alone) was “more prominent”, the cell apoptosis (A549 cells [9]) was “insignificant extent” and the cell apoptosis (UACC62 cells) was “insignificant extent”. For the same compound, the mitochondrial membrane potential (A549 cells [10]) was “significant decrease” and the cell apoptosis [11] was “no significant cell apoptosis”.
